Measured values: PubChem BioAssay (NCI)
≈ marks a conversion by molar mass, not a printed value. Where “and” joins values, the source holds several entries; their conditions need not be identical. Identical values can stand only once.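 Protocol summary: plate cells (96-well), add compound at 5 concentrations, incubate 48 h, interpolate endpoints linearly. Abbreviation: GI50, concentration required for 50% inhibition of growth. TGI: total growth inhibition.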

Assays:
Test in all cases: NCI tumour cell line growth inhibition, 48 h
RXF-631 renal = tested on: RXF-631 renal
SN12K1 renal = tested on: SN12K1 renal
P388 leukemia = tested on: P388 leukemia
P388/ADR leukemia = tested on: P388/ADR leukemia

| SMILES | TGI (RXF-631 renal) | further results |
| --- | --- | --- |
| C[C@]12CCC[C@H](O)[C@H]1C[C@H](CO)CC2 | > 100 µM |  |
| C/C=C(/CCC1NCCC2c3ccccc3NC12)[Si](C)(C)C (stereo not drawn) | 23.4 µM |  |
| Cc1cc(Cl)ccc1NC(=O)CCCC(=O)C1CCC/C1=N\NC(=O)CC#N (stereo not drawn) | > 100 µM |  |
| Cn1c2ccccc2c(=O)c2c(O)cc3c(c21)CC(C1(C)CO1)O3 (stereo not drawn) | > 33.6 µM |  |
| C=C1COC(O)(C2OCOC(C3CC(=O)NC(=O)C3)C2O)C1C (stereo not drawn) | 0.0249 µM and 0.0329 µM |  |
| NC(=O)c1ncn(CCN2CCN(C(=O)NCCCCCCNC(=O)N3CCN(CCn4cnc(C(N)=O)c4N)CC3)CC2)c1N | > 100 µM |  |
| COC(C(=O)C(O)C(C)O)C1Cc2cc3cc(OC4CC(OC5CC(O)C(O)C(C)O5)C(O)C(C)O4)c(C)c(O)c3c(O)c2C(=O)C1OC1CC(OC2CC(O)C(OC3CC(C)(O)C(O)C(C)O3)C(C)O2)C(O)C(C)O1 (stereo not drawn) |  | GI50 (SN12K1 renal): 0.0304 ng/mL (≈ 0.028 nM); TGI (SN12K1 renal): 150 ng/mL (≈ 138 nM); GI50 (P388 leukemia): 0.056 ng/mL (≈ 0.0516 nM); TGI (P388 leukemia): 0.798 ng/mL (≈ 0.735 nM); GI50 (P388/ADR leukemia): 1.32 ng/mL (≈ 1.22 nM); TGI (P388/ADR leukemia): 20.4 ng/mL (≈ 18.8 nM) |
| Cc1cc(=O)n2c3c(c4c(cc13)c(CO)cc(=O)n4C)OC2 | 38.9 µM |  |
| COC(=O)NN1C(C)=C(C(=O)OC)C2(C#N)C(C(=O)OC)=C(C)N(NC(=O)OC)C12N (stereo not drawn) | > 100 µM |  |
| C=C(C)C1CC=C(C)CC1 (stereo not drawn) | > 100 µM and 1720 µM | GI50 (RXF-631 renal): > 100 µM |
| Cn1c(=O)c2ccc(-c3ccc(Br)cc3)nc2n(C)c1=O | > 100 µM |  |
| CSc1nc2c(nc(N)n2C2OC(COC(C)=O)C(OC(C)=O)C(OC(C)=O)C2OC(C)=O)c(=O)n1C (stereo not drawn) | > 100 µM |  |
